Patent US12522607B2, “Substituted pyrazolo[3,4-d]pyrimidines as wee-1 inhibitors” (WIGEN BIOMEDICINE TECHNOLOGY (SHANGHAI) CO., LTD., priority 2020, dated 2026)

How the values were obtained:
Wee-1 kinase = biological target: T1, Wee-1 kinase (Homo sapiens, UniProt P30291); assay: Inhibitory activity against Wee-1 kinase (Lanthra Screen Wee-1 kinase kit, Tracer 178); type: binding; details: Wee-1 kinase 5 nM, Tracer 178 50 nM, 1 h room temperature
T1 construct: purchased Invitrogen
Outline: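 LanthaScreen binding format: Wee-1 kinase (5 nM final) with Eu-anti-GST antibody (2 nM final) and kinase Tracer 178 (50 nM final), compounds serially diluted in DMSO. 1 h at room temperature before reading. IC50 relative to DMSO control.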

HT29 cells = assay: Antiproliferative activity against HT29 cells (Cell Titer-Lumi, ATP content); type: cell-based; details: Homo sapiens, HT-29, 72 after compound addition, read-out: HT-29 cells Anti-proliferative activity (IC50 for the inhibition against HT-29 cell growth)
Outline: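 3000 cells per well, allowed to adhere overnight, then exposed to a gradient dilution of compound for 72 (units as printed). Cellular ATP read by luminescence (Cell Titer-Lumi) as a growth measure; IC50 for growth inhibition calculated.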

T1 sequence (P30291 whole entry): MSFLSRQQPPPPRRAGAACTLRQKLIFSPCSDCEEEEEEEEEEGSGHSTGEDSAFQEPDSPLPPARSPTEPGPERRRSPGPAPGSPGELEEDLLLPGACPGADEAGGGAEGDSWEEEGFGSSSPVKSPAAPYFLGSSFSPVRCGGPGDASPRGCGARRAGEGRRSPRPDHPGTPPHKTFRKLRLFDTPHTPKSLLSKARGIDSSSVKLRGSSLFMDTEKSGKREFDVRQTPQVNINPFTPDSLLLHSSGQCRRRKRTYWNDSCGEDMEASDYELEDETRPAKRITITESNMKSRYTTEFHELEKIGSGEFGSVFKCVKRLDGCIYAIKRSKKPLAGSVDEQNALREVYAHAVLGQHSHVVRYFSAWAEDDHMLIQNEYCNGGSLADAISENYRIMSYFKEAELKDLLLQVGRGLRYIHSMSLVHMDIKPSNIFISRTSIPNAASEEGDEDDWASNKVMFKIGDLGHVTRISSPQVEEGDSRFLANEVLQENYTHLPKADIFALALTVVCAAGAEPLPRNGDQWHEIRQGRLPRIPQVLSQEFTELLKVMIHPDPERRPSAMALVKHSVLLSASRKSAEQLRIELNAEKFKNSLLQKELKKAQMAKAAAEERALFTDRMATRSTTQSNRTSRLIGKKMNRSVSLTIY

SMILES	IC50 (Wee-1 kinase)	IC50 (HT29 cells)
C=CCn1c(=O)c2cnc(Nc3ccc(C4CCN(C)CC4)c(CC(F)(F)F)c3)nc2n1-c1ccc(=O)n(C(C)C)n1 [Compound 199]	≤ 30 nM	≤ 1000 nM
C=CCn1c(=O)c2cnc(Nc3ccc(C4(C)CCNCC4)cc3)nc2n1-c1ccc(=O)n(C(C)C)n1 [Compound 200]	≤ 30 nM	≤ 1000 nM
C=CCn1c(=O)c2cnc(Nc3ccc(C4(C)CCN(C)CC4)cc3)nc2n1-c1ccc(=O)n(C(C)C)n1 [Compound 201]	≤ 30 nM	≤ 1000 nM
C=CCn1c(=O)c2cnc(Nc3ccc(C4(C)CCCNC4)cc3)nc2n1-c1ccc(=O)n(C(C)C)n1 (stereo not shown) [Compound 202]	≤ 30 nM	≤ 1000 nM
C=CCn1c(=O)c2cnc(Nc3ccc(C4(C)CCCN(C)C4)cc3)nc2n1-c1ccc(=O)n(C(C)C)n1 (stereo not shown) [Compound 203]	≤ 30 nM	≤ 1000 nM
C=CCn1c(=O)c2cnc(Nc3cccc(C4CCNCC4)c3)nc2n1-c1ccc(=O)n(C(C)C)n1 [Compound 204]	≤ 30 nM	≤ 1000 nM
C=CCn1c(=O)c2cnc(Nc3cccc(C4CCN(C)CC4)c3)nc2n1-c1ccc(=O)n(C(C)C)n1 [Compound 205]	≤ 30 nM	≤ 1000 nM
C=CCn1c(=O)c2cnc(Nc3cc(C)cc(C4CCNCC4)c3)nc2n1-c1ccc(=O)n(C(C)C)n1 [Compound 206]	≤ 30 nM	≤ 1000 nM
C=CCn1c(=O)c2cnc(Nc3cc(C)cc(C4CCN(C)CC4)c3)nc2n1-c1ccc(=O)n(C(C)C)n1 [Compound 207]	≤ 30 nM	≤ 1000 nM
C=CCn1c(=O)c2cnc(Nc3cc(F)cc(C4CCNCC4)c3)nc2n1-c1ccc(=O)n(C(C)C)n1 [Compound 208]	≤ 30 nM	≤ 1000 nM
C=CCn1c(=O)c2cnc(Nc3cc(F)cc(C4CCN(C)CC4)c3)nc2n1-c1ccc(=O)n(C(C)C)n1 [Compound 209]	≤ 30 nM	≤ 1000 nM
C=CCn1c(=O)c2cnc(Nc3cc(Cl)cc(C4CCNCC4)c3)nc2n1-c1ccc(=O)n(C(C)C)n1 [Compound 210]	≤ 30 nM	≤ 1000 nM
C=CCn1c(=O)c2cnc(Nc3cc(Cl)cc(C4CCN(C)CC4)c3)nc2n1-c1ccc(=O)n(C(C)C)n1 [Compound 211]	≤ 30 nM	≤ 1000 nM
C=CCn1c(=O)c2cnc(Nc3cc(OC)cc(C4CCNCC4)c3)nc2n1-c1ccc(=O)n(C(C)C)n1 [Compound 212]	≤ 30 nM	≤ 1000 nM
C=CCn1c(=O)c2cnc(Nc3cc(OC)cc(C4CCN(C)CC4)c3)nc2n1-c1ccc(=O)n(C(C)C)n1 [Compound 213]	≤ 30 nM	≤ 1000 nM
C=CCn1c(=O)c2cnc(Nc3ccc(CCN(C)C)cc3)nc2n1-c1ccc(=O)n(C(C)C)n1 [Compound 214]	≤ 30 nM	≤ 1000 nM
C=CCn1c(=O)c2cnc(Nc3ccc(CCN(C)C)c(C)c3)nc2n1-c1ccc(=O)n(C(C)C)n1 [Compound 215]	≤ 30 nM	≤ 1000 nM
C=CCn1c(=O)c2cnc(Nc3ccc(OCCN(C)C)cc3)nc2n1-c1ccc(=O)n(C(C)C)n1 [Compound 216]	≤ 30 nM	≤ 1000 nM
C=CCn1c(=O)c2cnc(Nc3ccc(OCCN(C)C)c(C)c3)nc2n1-c1ccc(=O)n(C(C)C)n1 [Compound 217]	≤ 30 nM	≤ 1000 nM

SMILES	IC50 (Wee-1 kinase)	IC50 (HT29 cells)
C=CCn1c(=O)c2cnc(Nc3ccc4cc(N5CCN(C)CC5)ccc4c3)nc2n1-c1ccc(=O)n(C(C)C)n1 [Compound 218]	≤ 30 nM	≤ 1000 nM
C=CCn1c(=O)c2cnc(Nc3ccc4cc(N5CCN(C)CC5)cnc4c3)nc2n1-c1ccc(=O)n(C(C)C)n1 [Compound 219]	≤ 30 nM	≤ 1000 nM
C=CCn1c(=O)c2cnc(Nc3ccc4c(c3)CC(N(C)C)C4)nc2n1-c1ccc(=O)n(C(C)C)n1 (stereo not shown) [Compound 220]	≤ 30 nM	≤ 1000 nM
C=CCn1c(=O)c2cnc(Nc3ccc4c(c3)CNC4)nc2n1-c1ccc(=O)n(C(C)C)n1 [Compound 221]	≤ 30 nM	1000 to 3000 nM
C=CCn1c(=O)c2cnc(Nc3ccc4c(c3)CN(C)C4)nc2n1-c1ccc(=O)n(C(C)C)n1 [Compound 222]	≤ 30 nM	≤ 1000 nM
C=CCn1c(=O)c2cnc(Nc3ccc4c(c3)CNC4(C)C)nc2n1-c1ccc(=O)n(C(C)C)n1 [Compound 223]	≤ 30 nM	≤ 1000 nM
C=CCn1c(=O)c2cnc(Nc3ccc4c(c3)CN(C)C4(C)C)nc2n1-c1ccc(=O)n(C(C)C)n1 [Compound 224]	≤ 30 nM	≤ 1000 nM
C=CCn1c(=O)c2cnc(Nc3ccc4c(c3)CNCC4)nc2n1-c1ccc(=O)n(C(C)C)n1 [Compound 225]	≤ 30 nM	≤ 1000 nM
C=CCn1c(=O)c2cnc(Nc3ccc4c(c3)CN(C)CC4)nc2n1-c1ccc(=O)n(C(C)C)n1 [Compound 226]	≤ 30 nM	≤ 1000 nM
C=CCn1c(=O)c2cnc(Nc3ccc4c(c3)CN(C(C)C)CC4)nc2n1-c1ccc(=O)n(C(C)C)n1 [Compound 227]	≤ 30 nM	≤ 1000 nM
C=CCn1c(=O)c2cnc(Nc3ccc4c(c3)CCNC4)nc2n1-c1ccc(=O)n(C(C)C)n1 [Compound 228]	≤ 30 nM	≤ 1000 nM
C=CCn1c(=O)c2cnc(Nc3ccc4c(c3)CCN(C)C4)nc2n1-c1ccc(=O)n(C(C)C)n1 [Compound 229]	≤ 30 nM	≤ 1000 nM
C=CCn1c(=O)c2cnc(Nc3ccc4c(c3)CCN(C(C)C)C4)nc2n1-c1ccc(=O)n(C(C)C)n1 [Compound 230]	≤ 30 nM	≤ 1000 nM
C=CCn1c(=O)c2cnc(Nc3ccc4c(c3)CNCC43CC3)nc2n1-c1ccc(=O)n(C(C)C)n1 [Compound 231]	≤ 30 nM	≤ 1000 nM
C=CCn1c(=O)c2cnc(Nc3ccc4c(c3)CN(C)CC43CC3)nc2n1-c1ccc(=O)n(C(C)C)n1 [Compound 232]	≤ 30 nM	≤ 1000 nM
C=CCn1c(=O)c2cnc(Nc3ccc4c(c3)CN(C(C)C)CC43CC3)nc2n1-c1ccc(=O)n(C(C)C)n1 [Compound 233]	≤ 30 nM	≤ 1000 nM
C=CCn1c(=O)c2cnc(Nc3ccc4c(c3)C3(CC3)CNC4)nc2n1-c1ccc(=O)n(C(C)C)n1 [Compound 234]	≤ 30 nM	≤ 1000 nM
C=CCn1c(=O)c2cnc(Nc3ccc4c(c3)C3(CC3)CN(C)C4)nc2n1-c1ccc(=O)n(C(C)C)n1 [Compound 235]	≤ 30 nM	≤ 1000 nM
C=CCn1c(=O)c2cnc(Nc3ccc4c(c3)C3(CC3)CN(C(C)C)C4)nc2n1-c1ccc(=O)n(C(C)C)n1 [Compound 236]	≤ 30 nM	≤ 1000 nM

SMILES	IC50 (Wee-1 kinase)	IC50 (HT29 cells)
C=CCn1c(=O)c2cnc(Nc3ccc4c(c3)CNCC4(C)C)nc2n1-c1ccc(=O)n(C(C)C)n1 [Compound 237]	≤ 30 nM	≤ 1000 nM
C=CCn1c(=O)c2cnc(Nc3ccc4c(c3)CN(C)CC4(C)C)nc2n1-c1ccc(=O)n(C(C)C)n1 [Compound 238]	≤ 30 nM	≤ 1000 nM
C=CCn1c(=O)c2cnc(Nc3ccc4c(c3)CN(C(C)C)CC4(C)C)nc2n1-c1ccc(=O)n(C(C)C)n1 [Compound 239]	≤ 30 nM	≤ 1000 nM
C=CCn1c(=O)c2cnc(Nc3ccc4c(c3)CNCC4(F)F)nc2n1-c1ccc(=O)n(C(C)C)n1 [Compound 240]	≤ 30 nM	≤ 1000 nM
C=CCn1c(=O)c2cnc(Nc3ccc4c(c3)CN(C)CC4(F)F)nc2n1-c1ccc(=O)n(C(C)C)n1 [Compound 241]	≤ 30 nM	≤ 1000 nM
C=CCn1c(=O)c2cnc(Nc3ccc4c(c3)CN(C(C)C)CC4(F)F)nc2n1-c1ccc(=O)n(C(C)C)n1 [Compound 242]	≤ 30 nM	≤ 1000 nM
C=CCn1c(=O)c2cnc(Nc3ccc4c(c3)C(C)(C)CNC4)nc2n1-c1ccc(=O)n(C(C)C)n1 [Compound 243]	≤ 30 nM	≤ 1000 nM
C=CCn1c(=O)c2cnc(Nc3ccc4c(c3)C(C)(C)CN(C)C4)nc2n1-c1ccc(=O)n(C(C)C)n1 [Compound 244]	≤ 30 nM	≤ 1000 nM
C=CCn1c(=O)c2cnc(Nc3ccc4c(c3)C(C)(C)CN(C(C)C)C4)nc2n1-c1ccc(=O)n(C(C)C)n1 [Compound 245]	≤ 30 nM	≤ 1000 nM
C=CCn1c(=O)c2cnc(Nc3ccc(N(C)CCN(C)C)nc3)nc2n1-c1ccc(=O)n(C(C)C)n1 [Compound 246]	≤ 30 nM	≤ 1000 nM
C=CCn1c(=O)c2cnc(Nc3ccc(N4CCN(C)CC4)nc3)nc2n1-c1ccc(=O)n(C(C)C)n1 [Compound 247]	≤ 30 nM	≤ 1000 nM
C=CCn1c(=O)c2cnc(Nc3ccc(N4CCN(C)CC4)cn3)nc2n1-c1ccc(=O)n(C(C)C)n1 [Compound 248]	≤ 30 nM	≤ 1000 nM
C=CCn1c(=O)c2cnc(Nc3cc(OC)c(N4CCN(C)CC4)cn3)nc2n1-c1ccc(=O)n(C(C)C)n1 [Compound 249]	≤ 30 nM	≤ 1000 nM
C=CCn1c(=O)c2cnc(Nc3cnn(C4CCN(C)CC4)c3)nc2n1-c1ccc(=O)n(C(C)C)n1 [Compound 250]	30 to 100 nM	1000 to 3000 nM
C=CCn1c(=O)c2cnc(Nc3cnn(C4CCN(C(C)C)CC4)c3)nc2n1-c1ccc(=O)n(C(C)C)n1 [Compound 251]	30 to 100 nM	1000 to 3000 nM
C=CCn1c(=O)c2cnc(Nc3cc(N4CCN(C)CC4)c4cc[nH]c4c3)nc2n1-c1ccc(=O)n(C(C)C)n1 [Compound 252]	≤ 30 nM	≤ 1000 nM
C=CCn1c(=O)c2cnc(Nc3cc(N4CCN(C(C)C)CC4)c4cc[nH]c4c3)nc2n1-c1ccc(=O)n(C(C)C)n1 [Compound 253]	≤ 30 nM	≤ 1000 nM
C=CCn1c(=O)c2cnc(Nc3cc(N4CCC(N(C)C)CC4)c4cc[nH]c4c3)nc2n1-c1ccc(=O)n(C(C)C)n1 [Compound 254]	≤ 30 nM	≤ 1000 nM
